Data taken from patent US7217734B2, “Substituted benzopyrans as selective estrogen receptor-beta agonists” (Eli Lilly and Company, priority 2001, dated 2007).

Molecular target: T1, ERbeta Receptor (Homo sapiens, UniProt Q92731)
T1 construct: purchased Pan Vera
Test: Competition ER binding assay (3H-Estradiol), ER beta
Settings: ratio of Ki ER alpha to Ki ER beta; Ki from IC50 by Cheng-Prusoff equation
Protocol: The competition ER binding assay was run in a buffer containing 50 mM N-[2-hydroxyethyl]piperazine-N′-[2-ethanesulfonic acid (Hepes) pH 7.5, 1.5 mM EDTA, 150 mM NaCl, 10% glycerol, 1 mg/mL ovalbumin, 5 mM DTT, 0.025 μCi per well of ^3H-Estradiol (NEN #NET517 at 118 Ci/mmol, 1 mCi/mL), and 10 ng/well ERAlpha or ERbeta Receptor (Pan Vera). Competing compounds were added at 10 different concentrations. Non-specific binding was determined in the presence of 1 μM of E2 (17-β Estradiol, Sigma, St. Louis, Mo.). The binding reaction (140 μL) was incubated for 4 hours at room temperature, then 70 μL of cold dextran coated charcoal (DCC) buffer was added to each reaction (DCC buffer was prepared by adding 0.75 g of charcoal [Sigma] and 0.25 g of dextran [Pharmacia] per 50 mL of assay buffer). The incubation plates were mixed for 8 minutes on an orbital shaker at 4° C. and then centrifuged at 3,000 rpm for 10 minutes at 4° C. An aliquot of 120 μl of the mix was transferred to another 96-well, white flat bottom plate (Costar) and 175 μl of Wallac Optiphase Hisafe 3 scintillation fluid was added to each well. The plates were sealed and then shaken vigorously on an orbital shaker. After an incubation of 2.5 hrs, the radioactivity was counted in a Wallac Microbeta counter. […] The Kd for ^3H-Estradiol was determined by saturation binding to ERα and ERβ receptors. The IC50 values for compounds were converted to Ki values using the Cheng-Prusoff equation and the Kd values were determined by saturation binding assay.

T1 sequence (Q92731 whole entry): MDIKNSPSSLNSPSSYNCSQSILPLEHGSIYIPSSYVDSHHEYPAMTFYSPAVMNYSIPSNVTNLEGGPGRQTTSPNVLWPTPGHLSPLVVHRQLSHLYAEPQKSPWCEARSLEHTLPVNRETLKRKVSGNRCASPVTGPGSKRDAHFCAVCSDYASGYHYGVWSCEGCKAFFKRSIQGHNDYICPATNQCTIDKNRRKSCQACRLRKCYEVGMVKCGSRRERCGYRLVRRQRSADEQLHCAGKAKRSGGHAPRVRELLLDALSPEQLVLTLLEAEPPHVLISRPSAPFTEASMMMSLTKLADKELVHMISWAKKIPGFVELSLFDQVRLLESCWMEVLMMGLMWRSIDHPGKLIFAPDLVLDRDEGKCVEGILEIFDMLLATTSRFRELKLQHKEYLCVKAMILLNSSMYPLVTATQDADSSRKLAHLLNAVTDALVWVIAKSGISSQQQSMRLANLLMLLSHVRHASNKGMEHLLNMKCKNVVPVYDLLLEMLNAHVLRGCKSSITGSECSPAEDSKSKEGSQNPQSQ

SMILES	Ki (nM) ER alpha/Ki (nM) ER beta
Oc1ccc([C@H]2Oc3ccc(O)cc3[C@H]3CCC[C@H]32)cc1 (racemic) [Example 1, (^+)-2-(4-hydroxyphenyl)-6-hydroxy-cyclopentyl[c]3,4-dihydro-2H-1-benzopyran]	8.0
Oc1ccc([C@H]2Oc3ccc(C(F)(F)F)cc3[C@H]3CCC[C@H]32)cc1 (racemic) [Example 2, (^+)-2-(4-hydroxyphenyl)-6-trifluoromethyl-cyclopentyl[c]3,4-dihydro-2H-1-benzopyran]	1.4
Cc1ccc2c(c1)[C@H]1CCC[C@H]1[C@@H](c1ccc(O)cc1)O2 (racemic) [Example 3, (^+)-2-(4-hydroxyphenyl)-6-methyl-cyclopentyl[c]3,4-dihydro-2H-1-benzopyran]	1.2
Oc1ccc([C@H]2Oc3ccc(F)cc3[C@H]3CCC[C@H]32)cc1 (racemic) [Example 4, (^+)-2-(4-hydroxyphenyl)-6-fluoro-cyclopentyl[c]3,4-dihydro-2H-1-benzopyran]	4.7
Cc1cc(O)cc2c1O[C@H](c1ccc(O)cc1)[C@@H]1CCC[C@H]21 (racemic) [Example 7, (^+)-2-(4-hydroxyphenyl)-6-hydroxy-8-meth 1-cyclopentyl[c]3,4-dihydro-2H-1-benzopyran]	5.1
COc1cc(O)cc2c1O[C@H](c1ccc(O)cc1)[C@@H]1CCC[C@H]21 (racemic) [Example 9, (^+)-2-(4-hydroxyphenyl)-6-hydroxy-8-methoxy-cyclopentyl[c]3,4-dihydro-2H-1-benzopyran]	13
CC1(C)CC[C@H]2[C@@H](c3ccc(O)cc3)Oc3ccc(O)cc3[C@H]21 (racemic) [Example 10, (^+)-2-(4-hydroxyphenyl)-6-hydroxy-11,11-dimethyl-cyclopentyl[c]3,4-dihydro-2H-1-benzopyran]	2.5
CCC1(CC)CC[C@H]2[C@@H](c3ccc(O)cc3)Oc3ccc(O)cc3[C@H]21 (racemic) [Example 11, (^+)-2-(4-hydroxyphenyl)-6-hydroxy-11,11-diethyl-cyclopentyl[c]3,4-dihydro-2H-1-benzopyran]	1.6
COc1ccc2c(c1)[C@H]1CCC[C@H]1[C@@H](c1ccc(O)cc1)O2 (racemic) [Example 12, (^+)-2-(4-hydroxyphenyl)-6-methoxy-cyclopentyl[c]3,4-dihydro-2H-1-benzopyran]	2.3
Cc1cc([C@H]2Oc3ccc(O)cc3[C@H]3CCC[C@H]32)ccc1O (racemic) [Example 13, (^+)-2-(4-hydroxy-3-methylphenyl)-6-hydroxy-cyclopentyl[c]3,4-dihydro-2H-1-benzopyran]	4.4
Cc1cc([C@@H]2Oc3ccc(O)cc3[C@H]3CCC[C@H]32)ccc1O (racemic) [Example 14, (^+)-2-(4-hydroxy-3-methylphenyl)-6-hydroxy-cyclopentyl[c]3,4-dihydro-2H-1-benzopyran]	2.6
Cc1cc(O)ccc1[C@H]1Oc2ccc(O)cc2[C@H]2CCC[C@H]21 (racemic) [Example 15, (^+)-2-(2-methyl-4-hydroxyphenyl)-6-hydroxy-cyclopentyl[c]3,4-dihydro-2H-1-benzopyran]	11
Oc1ccc([C@@H]2Oc3ccc(O)cc3[C@H]3CCC[C@H]32)cc1 (racemic) [Example 16, (^+)-2-(4-hydroxyphenyl)-6-hydroxy-cyclopentyl[c]3,4-dihydro-2H-1-benzopyran]	1.4
Cc1cc2c(cc1O)[C@H]1CCC[C@H]1[C@@H](c1ccc(O)cc1)O2 (racemic) [Example 19, (^+)-2-(4-hydroxyphenyl)-6-hydroxy-7-methyl-cyclopentyl[c]3,4-dihydro-2H-1-benzopyran]	2.0
Cc1cc2c(cc1O)[C@H]1CCC[C@H]1[C@H](c1ccc(O)cc1)O2 (racemic) [Example 20, (^+)-2-(4-hydroxyphenyl)-6-hydroxy-7-methyl-cyclopentyl[c]3,4-dihydro-2H-1-benzopyran]	0.6
C[C@]1(c2ccc(O)cc2)Oc2ccc(O)cc2[C@@H]2CCC[C@@H]21 [Example 28, (^+)-2-methyl-2-(4-hydroxyphenyl)-6-hydroxy-cyclopentyl[c]3,4-dihydro-2H-1-benzopyran]	4.6
CC[C@]1(c2ccc(O)cc2)Oc2ccc(O)cc2[C@@H]2CCC[C@@H]21 [Example 29, (^+)-2-ethyl-2-(4-hydroxyphenyl)-6-hydroxy-cyclopentyl[c]3,4-dihydro-2H-1-benzopyran]	1.3
CC(C)[C@]1(c2ccc(O)cc2)Oc2ccc(O)cc2[C@@H]2CCC[C@@H]21 [Example 30, (+)-2-(1-methylethyl)-2-(4-hydroxyphenyl)-6-hydroxy-cyclopentyl[c]3,4-dihydro-2H-1-benzopyran]	1.4
